The numbers were not newly measured in US10815228B2, “Aztreonam derivatives and uses thereof” (ARIXA PHARMACEUTICALS, INC., priority 2017, dated 2020), which cites them from elsewhere.

For the molecule `C[C@H]1[C@H](NC(=O)/C(=N/OC(C)(C)C(=O)O)c2csc(N)n2)C(=O)N1S(=O)(=O)O` [aztreonam, (2-((((E)-1-(2-aminothiazol-4-yl)-2-(((2S,3S)-2-methyl-4-oxo-1-sulfoazetidin-3-yl)amino)-2-oxoethylidene)amino)oxy)-2-methylpropanoic acid)], for the setting “aztreonam, statement in words”, the oral bioavailability entry is reported as “poor oral bioavailability”. Besides, the “oral bioavailability of aztreonam” value (orally administered aztreonam) is on record as “less than 1%”.
